{"source": "patent US12532880B2", "about": "“Cryopreservation of cell monolayers” (priority 2018, dated 2026)", "origin": "cited, not measured here", "key": {"[1]": {"test_system": "porcine corneal endothelium", "conditions": "endothelium cryopreserved in the presence of 2% CS"}, "[2]": {"test_system": "intact human articular cartilage", "conditions": "chondroitin sulfate added to the vitrification solution"}}, "data": [{"substance": "chondroitin sulfate [CS]", "values": [{"measurement": "Loss of viability in post-thaw culture", "setting": "[1]", "value": 33, "unit": "%"}, {"measurement": "Cell recovery", "setting": "[2]", "value": 75.4, "unit": "%"}]}]}
